Patent EP0459298A2, “Use of substituted beta-hydroxyethylamines as potent inhibitors of a fungal exoenzyme” (HOECHST AKTIENGESELLSCHAFT, priority 1990, dated 1991)
Where two headings read alike, the source gives them in different places.

How the values were obtained:
Candida albicans = test system: Candida albicans; parameters: species or system Maus; conditions: in vivo; for Überlebenszeit (bez. auf Fluconazol = 100 % ): 50 mg/kg
Text: Als Beispiele für die systemische in vivo-Wirksamkeit der Verbindungen dient die systemische Candida albicans Infektion bei der Maus.
Ziel dieser Methode ist es, den Effekt von Präparaten auf eine systemische Candida albicans Infektion zu ermitteln. Die Infektion führt innerhalb von 2-4 Tagen zum Tod der Tiere.
Beschreibung der Methode: Albino Mäuse (NMRI, Männchen, 15-20 g Körpergewicht) werden intravenös mit Candida albicans Hefezellen infiziert (Stamm 200/175), die frisch auf Malzagar vorkultiviert wurden und in physiologischer Kochsalzlösung suspendiert wurden. Die Infektionsdosis, die in dem angegebenen Zeitrahmen zur Lethalität führt, wurde photometrisch eingestellt und enthielt eine Million Hefezellen pro Maus.
Die zu prüfenden Verbindungen werden entweder alleine oder in Kombination mit einem Standardantimykotikum verabreicht. Im durchgeführten Test wurde ein Kombinationspräparat verwendet, wobei als Standardantimykotikum Fluconazol (Fa. Pfizer) diente. Applikationswege sind je nach Substanzgruppe unterschiedlich, wobei der oralen Applikation der Vorzug gegeben wird. Die Mäuse werden 4 Wochen beobachtet, die Mortalität wird täglich registriert, und die Überlebenszeiten der einzelnen Gruppen werden gemittelt und untereinander verglichen. Gruppengröße beträgt durchschnittlich 10 Tiere.
Der Vergleich der Mittelwerte geschieht mit dem Students T Test.
Dosierungen: Fluconazol jeweils 8 x p.o. 50 mg/kg/Tag β-Hydroxy-ethylamin jeweils 14 x p.o. 50 mg/kg/Tag

[1] = test system: liposomalen Phospholipase A1 von Säugern; conditions: in-vitro-Test; Biochem. Pharmacol. 34, 521-24, 1985; cited from earlier work
Plasmopara viticola = experiment: Fungicidal activity on vine seedlings inoculated with Plasmopara viticola; format: in vivo, Weinsämlinge; conditions: untreated infected control = 100
Method: Weinsämlinge wurden ca. 6 Wochen nach der Aussaat mit wäßrigen Suspensionen der zu untersuchenden Verbindungen gleichmäßig benetzt. Nach dem Antrocknen des Spritzbelages wurden die Pflanzen mit einer Sporensuspension von Plasmopara viticola inokuliert und für kurze Zeit in eine Klimakammer (23 °C und 80-90 % rel. Luftfeuchte) gestellt. Nach einer Inkubationszeit von 7 Tagen wurden die Pflanzen zur Sporulation des Pilzes erneut für einige Stunden in die Klimakammer gestellt. Anschließend erfolgte die Auswertung des Befalls. Der Befallsgrad wird ausgedrückt in % befallener Blattfläche im Vergleich zu den unbehandelten, infizierten Kontrollpflanzen und ist in Tabelle 4 wiedergegeben.

[2] = test system: Trichophyton mentagrophytes; experiment: Percent killing of Trichophyton mentagrophytes in vitro; format: cell-based; conditions: nach 14 h in aqua dest., read-out: %-Abtötung von Trichophyton mentagrophytes; for killing at 2.5 µg/mL: 2,5 µg/ml
Method: (Werte in %-Abtötung von Trichophyton mentagrophytes nach 14 h in aqua dest.)

[3] = 125 ppm Wirkstoff (mg Wirkstoff/Liter Spritzbrühe)
[4] = 250 ppm Wirkstoff (mg Wirkstoff/Liter Spritzbrühe)
[5] = 500 ppm Wirkstoff (mg Wirkstoff/Liter Spritzbrühe)

CC(C)CC(C)NCC(O)COc1ccccc1C1CCCC1 (centres unmarked) [Verbindung 1.10]
Überlebenszeit (bez. auf Fluconazol = 100 % ) (Candida albicans): 149%

CC(C)NCC(O)COc1cccc2ccccc12 (centres unmarked) [Propranolol]
Hemmwirkung gegenüber Phospholipase aus Leberzellen [1]: wirksamste Substanz

CC(C)(C)c1ccc(OCC(O)CNCc2cccs2)cc1 (centres unmarked) [Verbindung 1.32]
mit Plasmopara viticola befallene Blattfläche in % (Plasmopara viticola; [3]): 0% | mit Plasmopara viticola befallene Blattfläche in % (Plasmopara viticola; [4]): 0% | mit Plasmopara viticola befallene Blattfläche in % (Plasmopara viticola; [5]): 0%

Cc1cc(COc2ccc(Oc3ccc(Cl)cc3)cc2)n(O)c(=O)c1 [Rilopirox, reference compound]
killing at 5 µg/mL [2]: 96.2% | killing at 10 µg/mL [2]: 100% | killing at 20 µg/mL [2]: 100% | killing at 40 µg/mL [2]: 100% | killing at 80 µg/mL [2]: 100% | killing at 2.5 µg/mL [2]: 94.1%

CCCCNCC(O)COc1ccc(C(C)(C)C)cc1 (centres unmarked) [Verbindung 1.37]
mit Plasmopara viticola befallene Blattfläche in % (Plasmopara viticola; [3]): 0% | mit Plasmopara viticola befallene Blattfläche in % (Plasmopara viticola; [4]): 0% | mit Plasmopara viticola befallene Blattfläche in % (Plasmopara viticola; [5]): 0%

COc1ccc(CC(C)(C)NCC(O)COc2ccccc2C2CCCC2)cc1 (centres unmarked) [Verbindung 1.18]
killing at 5 µg/mL [2]: 95.7% | killing at 10 µg/mL [2]: 100% | killing at 20 µg/mL [2]: 100% | killing at 40 µg/mL [2]: 100% | killing at 80 µg/mL [2]: 100% | killing at 2.5 µg/mL [2]: 79.3%

CC(C)(C)c1ccc(OCC(O)CNc2ccccc2)cc1 (centres unmarked) [Verbindung 1.16]
Verlängerung der Überlebenszeit (Candida albicans): 65% | Überlebenszeit (bez. auf Fluconazol = 100 % ) (Candida albicans): 165%

OC(Cn1cncn1)(Cn1cncn1)c1ccc(F)cc1F [Fluconazol, reference compound]
Überlebenszeit (bez. auf Fluconazol = 100 % ) (Candida albicans; po): 100%
